“And” between values parts separate entries of the source, which are not always exact repeats. Identical values can stand only once. Like-named read-outs stand apart in the source and are kept apart here. Blank lines part the entries; values can stand above or below the molecule they belong to.
Experiments:
tyrosinase [1] = target: T1, tyrosinase (Agaricus bisporus, UniProt C7FF04); experiment: Tyrosinase assay (L-tyrosine substrate, product detected at 475 nm); assay type: biochemical, mushroom; conditions: for Binding mode: Lineweaver–Burk and Dixon plots; for Ki: based on Dixon plots; for inhibition at 100 µM: read-out: Inhibitory activity on tyrosinase at 100 μM (%)
T1 construct: purchased Sigma-Aldrich T3824
Procedure: Phlorotannins of E. cava and E. stolonifera were reported to have the inhibitory activity on mushroom tyrosinase. […] This study evaluated the ability of the isolated phlorotannins 1–7 to suppress the catalytic reaction of tyrosinase over time, in the absence or presence of inhibitor. […]. A commercial tyrosinase inhibitor was used as a positive control (kojic acid; […]. To identify potent inhibitors, the inhibitory activity of all of the isolated compounds at 100 μM was tested against tyrosinase in vitro (Table 1). Of these, compounds 2–5 were confirmed to have inhibitory activity exceeding 50%. Serial dilutions were used to calculate the IC50 values. The tyrosinase inhibitory activity increased in a dose-dependent fashion (Figure 2A). […]. To gain insight into the interaction of the enzyme with phlorotannins, as tyrosinase inhibitors, the products of the catalytic reaction were determined by ultraviolet-visible photometry after the inhibitor was added to the enzyme solution. The IC50 values of compounds 3 and 5 increased linearly with [S]/Km (Figure 2B). […]. Phlorotannins from seaweeds have been used to develop the non-competitive tyrosinase inhibitors 7-phloroeckol, dieckol, and phlorofucofuroeckol A, and the competitive inhibitors phloroglucinol and eckstolonol.
To evaluate inhibitory activity on tyrosinase with isolated compounds, 130 μL of tyrosinase in […] phosphate buffer (pH 6.8) was divided in 96 well plates. 20 μL of compound concentrations ranging from 1–0.015 mM was added. 50 μL of 1.5 mM L-tyrosine in phosphate buffer was diluted into the mixture for calculating the inhibitory activity. 50 μL of 10–0.62 mM L-tyrosine in buffer was added to analyze initial velocity (v0). After starting their reaction for 20 min, an amount of the product was detected at UV–vis 475 nm. […]

tyrosinase [2] = target: T1, tyrosinase; experiment: Slow-binding inhibition analysis (progress curves); assay type: biochemical, mushroom; conditions: for Ki: apparent Ki from slow-binding analysis, read-out: kapp i; for Slow-binding mechanism: replot of kobs vs [I]
Procedure: To confirm time-dependent inhibition by the potential inhibitors (compounds 3 and 5), the substrate was added into a mixture of ligand (3.1 μM) that was preincubated with tyrosinase. Over time, their inhibitory activities increased. To calculate the slow-binding parameters (k3, k4, k5, k6, and kapp i), the progress curves were analyzed using equation (2), with increasing concentrations of compounds 3 and 5 (Figure 3C,D); a replot of kobs was obtained as [I] (Figure 3E,F). The replot of compound 3 was a straight line that fit equation (3). […] The two strongest inhibitors had different slow-binding mechanisms. Inhibitor 5, which has a higher molecular weight, induced a new conformational state of the enzyme.
The progress curves were calculated to Equation (2) by Morrison according to time course for 420 s. [P] = vst + [(v0 − vs)/kobs(1 − e^−kobst)](2) where t is time, [P] is product intensity, v0 and vs are the initial and steady-state reaction velocities, and kobs is the apparent first-order rate […]. kobs = k4 + k3[I](3) (4) Kiapp=k4/k3
This is a linear Equation (3) for slow-binding mechanism A. Kiapp is the apparent value of an inhibitor by Equation (4). Where [I] is inhibitor concentration. (5) kobs=k6+[(k5×[I])/(Kiapp+[I])
Equation (5) of hyperbola is for the calculation of rate constant in slow-binding mechanism B.

tyrosinase [3] = target: T1, tyrosinase; conditions: cited from earlier work; for Mode of tyrosinase inhibition (literature): phlorotannins from seaweeds

T1 sequence (C7FF04 1-392 limits assumed): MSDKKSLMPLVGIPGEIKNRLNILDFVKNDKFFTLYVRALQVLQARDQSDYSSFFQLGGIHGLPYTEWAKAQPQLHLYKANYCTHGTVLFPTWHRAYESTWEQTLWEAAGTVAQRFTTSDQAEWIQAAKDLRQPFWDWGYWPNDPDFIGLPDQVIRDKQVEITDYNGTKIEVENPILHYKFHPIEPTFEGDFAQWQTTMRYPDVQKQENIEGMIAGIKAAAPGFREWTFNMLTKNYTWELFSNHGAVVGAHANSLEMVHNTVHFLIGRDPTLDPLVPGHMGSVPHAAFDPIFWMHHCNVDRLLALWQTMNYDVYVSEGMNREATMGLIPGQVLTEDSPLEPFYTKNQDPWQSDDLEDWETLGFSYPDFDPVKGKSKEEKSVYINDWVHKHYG

Binding mode (tyrosinase [1]): Competitive
Ki (tyrosinase [1]): 5.8 µM
inhibition at 100 µM (tyrosinase [1]; compound at 100 μM, triplicate): 86.9 ± 0.9%
IC50 (tyrosinase [1]; triplicate, read-out: IC50): < 10 µM and 8.8 µM
Ki (tyrosinase [2]): 4.4 µM
Slow-binding mechanism (tyrosinase [2]): a two-step binding mechanism
K5 (tyrosinase [2]; slow-binding mechanism B): 0.0047 s⁻¹
K6 (tyrosinase [2]; slow-binding mechanism B): 0.0003 s⁻¹
Molecule: Oc1cc(O)cc(Oc2c(O)cc(O)c3c2Oc2c(O)cc(O)c(-c4c(O)cc(O)c5c4Oc4c(O)cc(Oc6c(O)cc(O)cc6O)c(Oc6cc(O)cc(O)c6)c4O5)c2O3)c1 [Compound 5, 2-O-(2,4,6-trihydroxyphenyl)-6,6′-bieckol]

inhibition at 100 µM (tyrosinase [1]; compound at 100 μM, triplicate): 41.2 ± 4.3%
Molecule: Oc1cc(O)cc(Oc2c(O)cc(O)c3c2Oc2c(cc(O)c(-c4c(O)cc(O)c5c4Oc4c(O)cc(O)c(Oc6cc(O)cc(O)c6)c4O5)c2O)O3)c1 [Compound 6, 6,8′-bieckol]

Molecule: Oc1cc(O)cc(Oc2c(O)cc(O)c3c2Oc2c(O)cc(Oc4c(O)cc(O)cc4O)cc2O3)c1 [7-phloroeckol]
Mode of tyrosinase inhibition (literature) (tyrosinase [3]): non-competitive

Molecule: Oc1cc(O)cc(O)c1 [phloroglucinol]
Mode of tyrosinase inhibition (literature) (tyrosinase [3]): competitive

Molecule: Oc1cc(O)cc(Oc2c(O)cc(O)c3c2Oc2c(O)cc(Oc4c(O)cc(Oc5c(O)cc(O)c6c5Oc5c(O)cc(O)cc5O6)cc4O)cc2O3)c1 [dieckol]
Mode of tyrosinase inhibition (literature) (tyrosinase [3]): non-competitive

Molecule: triphlorethol A [Compound 1]
Inhibitory activity on tyrosinase at 100 μM (%) (tyrosinase [1]; compound at 100 μM, triplicate): 26.7 ± 1.0%

Molecule: Oc1cc(O)cc(Oc2c(O)cc(O)c3c2Oc2c(O)cc4oc5c(Oc6cc(O)cc(O)c6)c(O)cc(O)c5c4c2O3)c1 [Compound 4, phlorofucofuroeckol A]
IC50 (tyrosinase [1]; IC50, triplicate): 66.4 ± 0.1 µM
inhibition at 100 µM (tyrosinase [1]; compound at 100 μM, triplicate): 57.1 ± 3.3%
Mode of tyrosinase inhibition (literature) (tyrosinase [3]): non-competitive

Molecule: Oc1cc(O)cc(Oc2c(O)cc(O)c3c2Oc2c(cc(O)c(-c4c(O)cc5c(c4O)Oc4c(Oc6cc(O)cc(O)c6)c(O)cc(O)c4O5)c2O)O3)c1 [Compound 7, 8,8′-bieckol]
inhibition at 100 µM (tyrosinase [1]): 43.3 ± 1.5%

Molecule: Oc1cc(O)cc(Oc2c(O)cc(O)c3c2Oc2c(O)cc(O)cc2O3)c1 [Compound 2, eckol]
IC50 (tyrosinase [1]; IC50, triplicate): 13.5 ± 0.1 µM
inhibition at 100 µM (tyrosinase [1]; compound at 100 μM, triplicate): 86 ± 4.7%
Binding mode (reported) (tyrosinase [3]): Reported as non-competitive ^d

Molecule: eckstolonol
Mode of tyrosinase inhibition (literature) (tyrosinase [3]): competitive

Binding mode (tyrosinase [1]): Competitive
Ki (tyrosinase [1]): 8.2 µM
inhibition at 100 µM (tyrosinase [1]; compound at 100 μM, triplicate): 94.7 ± 1.4%
IC50 (tyrosinase [1]; triplicate, read-out: IC50): < 10 µM and 7 µM
Ki (tyrosinase [2]): 6.5 µM
Slow-binding mechanism (tyrosinase [2]): a single-step binding mechanism
K3 (tyrosinase [2]; slow-binding mechanism A): 0.0002 mM/s
k4 (tyrosinase [2]; slow-binding mechanism A): 0.0013 s⁻¹
Molecule: Oc1cc(O)cc(Oc2c(Oc3c(O)cc(O)cc3O)cc(O)c3c2Oc2c(O)cc(O)cc2O3)c1 [Compound 3, 2-phloroeckol]

Source: article PMC6627058, “Slow-Binding Inhibition of Tyrosinase by Ecklonia cava Phlorotannins” (Marine Drugs, 2019)
